How the values were obtained:
[1] = tested on: H295R adreno-cortical carcinoma cell line; experiment: Steroid modulation screen in vitro; format: cell-based; details: tested at 200 to 0.0002 μM; only at top concentration
Method: To assess potential effects on steroidogenesis, Compound 1 was screened for steroid modulation in vitro using the H295R adreno-cortical carcinoma cell line (at 200 to 0.0002 μM) and in an assay to monitor cell viability (MTT Kit). Compound 1 indicated steroid modulation potential (% over vehicle) only at 200 μM, the top concentration tested, with 100% cellular viability at concentrations ≤20 μM (90% viability at 200 μM).

sickle RBCs [2] = experiment: Phase 1: Lorrca Oxygenscan in SCD patients; format: in vivo, human; details: SCD single 700 mg, Post-dose (24 hours), median (range)
Method: In this study, SAD/MAD cohorts are randomized (3 to 1) to receive Compound 1 or placebo (P). Compound 1 was evaluated first in 4 healthy SAD cohorts and 4 healthy MAD (14-day dosing period) cohorts. Based on the safety, and PK/PD profile from HS, Compound 1 is then evaluated in 1 SCD SAD cohort and 2 SCD MAD cohorts. Specifically, based on the safety and pharmacokinetic/pharmacodynamics (PK/PD) profile in healthy volunteer studies, Compound 1 is evaluated in patients (pts) with SCD, first in a single dose (SD or SAD) cohort and then in multiple-dose (MD or MAD) cohorts (14-day and 12-week). Safety assessments include AEs, vital signs, ECGs and laboratory parameters. PK/PD blood sampling was performed on Day 1 (SAD/MAD) and Day 14 (MAD) and up to 72 h after the last dose and at the end-of-study visit. PD parameters included 2,3-DPG, ATP, and p50 in all cohorts with additional PD studies (including oxygen scan) performed only in the SCD cohorts. PD parameters included 2,3-DPG, ATP, p50, RBC deformability with controlled deoxygenation and reoxygenation (Lorrca® oxygen scan) and varying osmolality (Lorrca® osmoscan)). […]
Functional evaluation of RBCs was performed using Laser-Optical Rotational Red Cell Analyzer (Lorrca®) technology (RR Mechatronics, Zwaag, The Netherlands). […] In brief, the Oxygenscan allows for the measurement and visualisation of RBC elongation in shear stress in an oxygen gradient, during deoxygenation and re-oxygenation, expressed as the elongation index (EI). […] Evaluated Osmoscan parameters included: EImax; Omin (osmolality at ELmax; hypotonic region), which corresponds to the value of the hypotonic osmolality at which 50% of the cells hemolyse in an osmotic fragility assay and provides information on the initial surface-to-volume ratio of the RBCs; and Ohyper (osmolality corresponding to 50% of the EImax; hypertonic region), which correlates with the initial intracellular viscosity of the cell sample. […]
The effects of a single dose of Compound 1 (700 mg) versus placebo on oxygen scan, oxygen affinity (p50), and osmoscan in SCD patients were evaluated. […]

sickle RBCs [3] = experiment: Phase 1: Lorrca Osmoscan in SCD patients; format: in vivo, human
Method: In this study, SAD/MAD cohorts are randomized (3 to 1) to receive Compound 1 or placebo (P). Compound 1 was evaluated first in 4 healthy SAD cohorts and 4 healthy MAD (14-day dosing period) cohorts. Based on the safety, and PK/PD profile from HS, Compound 1 is then evaluated in 1 SCD SAD cohort and 2 SCD MAD cohorts. Specifically, based on the safety and pharmacokinetic/pharmacodynamics (PK/PD) profile in healthy volunteer studies, Compound 1 is evaluated in patients (pts) with SCD, first in a single dose (SD or SAD) cohort and then in multiple-dose (MD or MAD) cohorts (14-day and 12-week). Safety assessments include AEs, vital signs, ECGs and laboratory parameters. PK/PD blood sampling was performed on Day 1 (SAD/MAD) and Day 14 (MAD) and up to 72 h after the last dose and at the end-of-study visit. PD parameters included 2,3-DPG, ATP, and p50 in all cohorts with additional PD studies (including oxygen scan) performed only in the SCD cohorts. PD parameters included 2,3-DPG, ATP, p50, RBC deformability with controlled deoxygenation and reoxygenation (Lorrca® oxygen scan) and varying osmolality (Lorrca® osmoscan)). To maintain study blind, pt identifiers were removed when needed.
Functional evaluation of RBCs was performed using Laser-Optical Rotational Red Cell Analyzer (Lorrca®) technology (RR Mechatronics, Zwaag, The Netherlands). Osmoscan was performed for healthy subjects, and both Oxygenscan and Osmoscan analyses were undertaken for the patients with SCD. In brief, the Oxygenscan allows for the measurement and visualisation of RBC elongation in shear stress in an oxygen gradient, during deoxygenation and re-oxygenation, expressed as the elongation index (EI). […] Evaluated Osmoscan parameters included: EImax; Omin (osmolality at ELmax; hypotonic region), which corresponds to the value of the hypotonic osmolality at which 50% of the cells hemolyse in an osmotic fragility assay and provides information on the initial surface-to-volume ratio of the RBCs; and Ohyper (osmolality corresponding to 50% of the EImax; hypertonic region), which correlates with the initial intracellular viscosity of the cell sample. […]
The effects of a single dose of Compound 1 (700 mg) versus placebo on oxygen scan, oxygen affinity (p50), and osmoscan in SCD patients were evaluated. […] In order to measure the impact of Compound 1 on this critical function, the effect of Compound 1 compared to placebo on the deformability of SCD RBCs across an osmolality gradient was evaluated. […]

## O=C([C@H](CO)c1ccccc1)N1CC2=C(C1)CN(S(=O)(=O)c1cnc3c(c1)OCCO3)C2 (single isomer, unassigned) [Compound 1]
[1]
  concentration indicating steroid modulation potential (% over vehicle): 200 µM
Sickle RBCs [2]; pre-dose 0.193 (0.16, 0.21)
  EImin (Oxygenscan): 0.296 (0.26, 0.38)
Sickle RBCs [2]; pre-dose 0.445 (0.41, 0.51)
  EImax (Oxygenscan): 0.451 (0.42, 0.52)
Sickle RBCs [2]; pre-dose 35.4 (27.3, 38.8)
  POS (Oxygenscan): 24.0 (17.9, 31.8)
Sickle RBCs [3]; SCD single 700 mg, Post-dose (24 hours), median (range), pre-dose 0.483 (0.46, 0.57)
  EImax (Osmoscan): 0.478 (0.46, 0.57)
Sickle RBCs [3]; SCD single 700 mg, Post-dose (24 hours), median (range), pre-dose 108 (105, 121)
  Omin (Osmoscan): 117 (106, 124)
Sickle RBCs [3]; SCD single 700 mg, Post-dose (24 hours), median (range), pre-dose 380 (371, 399)
  Ohyper (Osmoscan): 400 (371, 412)
Sickle RBCs [3]; SCD, after the single 700 mg dose
  time to return to baseline of Oxygenscan/Osmoscan effects: 3 to 7 days

Source: US12128035B2, “Activating pyruvate kinase R” (Novo Nordisk Health Care AG, priority 2021, dated 2024)
